Consider 12 molecules from US9156906B2, “Glycopeptides and methods of making and using them” (THE REGENTS OF THE UNIVERSITY OF CALIFORNIA, priority 2008, dated 2015).

Where a SMILES comes first, the peptide text is derived from it. Where no end group is shown, it is not given here. The star is where a group is joined. X1 = CC(=O)N[C@@H]1[C@@H](O[C@@H]2O[C@H](CO)[C@H](O)[C@H](O)[C@H]2O)[C@@H](O)[C@@H](CO)O[C@@H]1*; GalNAc = N-acetylgalactosamine (GalNAc, 2-acetamido-2-deoxy-D-galactopyranose); αGalNAc = CC(=O)N[C@@H]1[C@@H](O)[C@@H](O)[C@@H](CO)O[C@@H]1*

Series [1] has as its system naïve CD8+ T cells of healthy A2 donors. Briefly: In vitro priming of naive cytotoxic T cells from PBMC of normal A2+ donors, 51Cr release on T2 cells.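 For all read-outs here: CTL lines primed by co-culturing PBMC with autologous antigen-pulsed mature dendritic cells, 12 lines per antigen, lysis net of unpulsed T2 cell background.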 Format: cell-based, human. To be noted: for number of specific CTL lines out of the 12, Donor 1 / number of specific CTL lines out of the 12, Donor 2 / number of specific CTL lines out of the 12, Donor 3 / number of specific CTL lines out of the 12, Donor 4 / number of specific CTL lines out of the 12, Donor 5 / number of specific CTL lines out of the 12, Donor 6 / number of specific CTL lines out of the 12, Donor 7: net specific lysis ≧20%, day 10, T2 targets 3:1 E/T; for Total number of specific CTL lines: sum over 7 donors.
Protocol: Seven A2+ healthy individuals, never exposed to HBV or HIV, between ages 40 and 57, were included in the study. Autologous, antigen-pulsed, mature dendritic cells (DC) were used as antigen presenting cells (APCs) for the in vitro priming. Autologous DC were cultured with granulocyte/macrophage colony stimulating factor (GM-CSF) (kindly provided by Kirin, Japan) and interleukin (IL) 4 (Peprotech, Rocky Hill, N.J.).
DC were previously pulsed for 2 hours with glycopeptides(s) or peptide(s). Each well defined an individual CTL line.
By using the culture conditions and IL2 regimen optimized over several years in our laboratory, the large majority of the PBMC in culture are T cells at day 10. CD8+ T cells represent the majority.
T cell cultures were tested for specificity at day 10 in a ^51Cr release assay. T2 cells (A2) were used as targets at 3:1 E/T ratio. T cell lines primed in vitro with glycopeptides were tested for the ability to recognize T2 cells pulsed with the glycopeptides, or the peptide backbones, or to untreated T2 cells (background control). Peptide-primed T cell lines were also tested for their ability to respond to peptides and cross-react with the corresponding GalNAc-O-S modified sequence.
CTL lines showing a net specific lysis ≧20% were considered specific. Carbohydrate recognition was defined as a specific response to the glycopeptides, after subtracting the background and the specific response to the corresponding peptide backbone.

For series [2], the system named is β-Gal-[1->3]-α-GalNAc-O-specific T cell clones. The series is described as follows: 51Cr release cytotoxicity assay with TF-specific CTL clones on antigen-pulsed EL-4 targets (fine specificity, cross-reactivity). Format: cell-based, mouse. To be noted: clones B1, C3, D4, 5:1 E/T. The protocol:
CTL clones were generated in C57BL/6 mice (H-2^b) immunized with a K^b-restricted designer alanine-rich glycopeptide sequence that contained TF, sequence: • AIIA(β-Gal-[1->3]-α-GalNAc-O-serine)FAAL
TF-specific CTL clones were tested for the capacity to cross-react to a glycopeptide with a completely unrelated sequence but carrying the sugar at the same position (5 within a 9mer). For this analysis, we designed a modified Sendai virus immunodominant epitope NP 324-332 (5N->5S-TF), sequence: • FAPG (β-Gal-[1->3]-α-GalNAc-O-S)YPAL This epitope is an ideal proof concept because when bonded to K^b class I MHC molecules it exposes position 5 as a major TcR contact.
To define the role of the glycosylated amino acid linker for sugar recognition by T cells, the same T cell clones were also tested for cross-reactivity to three alanine-rich glycopeptides with identical sequences as the immunogen: AIIA(β-Gal-[1->3]-α-GalNAc-O-serine)FAAL, but where TF was linked to different amino acid residues.
T cells were studied with a classic ^51Cr release cytotoxicity assay at a 5:1 effector/target (E/T) ratio. The EL-4 thymoma cell line (H-2)^b, class II MHC negative, was used as the target in these experiments. The cytolytic response to EL-4 cells in the absence of glycopeptides (background) was also assayed, and subtracted, to quantify the net specific lysis. […]

The subject of another series is C57BL/6 mice. The series is described as follows: Immunization of wild type C57BL/6 mice, generation of cytotoxic T cells. Format: in vivo, mouse. To be noted: wild type C57BL/6 mice (H-2^b).
The test system of a further series is A2 class I MHC molecules. Briefly: A2 binding affinity of glycopeptides. More on the design: species or system human.
For series [3] the following is noted: clear solution with no visible particulates.
Description: Solubility is defined as a clear solution with no visible particulates.
Another series concerns cancer patients. To be noted: variety of different formulations; cited from earlier work.
The test system of a further series is MUC1/MT transgenic mice. The series is described as follows: Glycopeptide vaccination of tumor bearing MUC1/MT transgenic mice, CTL activity by 51Cr release on EL-4. Particulars: MUC1/MT mice 14, 18, 24 weeks old; glycopeptide in IFA; EL-4 targets.

Protocol for C57BL/6 mice: These studies were performed in vivo by injecting Tn-containing glycopeptides in: 1) wild type mice (C57BL/6, H-2^b); and 2) MUC1/MT double transgenic mice (H-2^b) that develop spontaneous tumors expressing the Tn carbohydrate molecule within 12 weeks of age.
Protocol for MUC1/MT transgenic mice: In these experiments, MUC1/MT mice have been chosen according to age and tumor development.
Seven days after priming, mice were sacrificed. Splenocytes from each experimental group were pooled and stimulated in vitro in the presence of the glycopeptide that was used as immunogen and irradiated B cell blasts as antigen presenting cells (APCs). After 5 days in culture, cells were collected, purified over Ficoll gradient, and T cell blasts were cultured in complete RPMI conditioned with supernatant from ConA-activated splenocytes as an IL2 source. Two days later (day 7 in culture) T cells were tested for CTL activity.
Carbohydrate and peptide specificity were studied in a standard ^51Cr release assay using the lymphoma EL-4 (H-2^b) cell line as target at different effector: target ratios (E/T) in duplicate, with and without antigens. […] Net specific lysis has been calculated by subtracting the cytolytic response to EL-4 cells alone without antigens defined as background. Data were calculated as % cytotoxicity=[(sample-spontaneous release)/(maximum release-spontaneous release)]×100.
Specificity of primary CTL cultures tested in a ^51Cr release assay is shown. […] EL-4 cells plated with T cell blasts in the absence of antigens have been assessed in duplicate at every E/T ratio to determine the extent of non-specific lysis. […]

Turning to `CC(=O)N[C@H]1[C@@H](OC[C@H](NC(=O)[C@@H]2CCCN2C(=O)[C@H](CC(C)C)NC(=O)[C@@H](N)Cc2ccccc2)C(=O)N[C@@H](CC(=O)O)C(=O)N[C@@H](Cc2ccccc2)C(=O)N[C@@H](Cc2ccccc2)C(=O)N2CCC[C@H]2C(=O)N[C@@H](CO)C(=O)N[C@H](C(=O)O)C(C)C)O[C@H](CO)[C@H](O)[C@@H]1O`, in series [1], the “number of specific CTL lines out of the 12, Donor 1” value (“number … Donor 1” below) came out at 5; the “number of specific CTL lines out of the 12, Donor 2” value (from here on “number … Donor 2”) was found to be 5; the “number of specific CTL lines out of the 12, Donor 3” value (shortened to “number … Donor 3”) came to 1; the “number of specific CTL lines out of the 12, Donor 4” value (“number … Donor 4” below) amounted to 3. In series [1], the “number of specific CTL lines out of the 12, Donor 5” value (from here on “number … Donor 5”) came to 4; the “number of specific CTL lines out of the 12, Donor 6” value (shortened to “number … Donor 6”) stood at 2; the “number of specific CTL lines out of the 12, Donor 7” value (“number … Donor 7” below) was 4; the “Total number of specific CTL lines” value was 24.
As to `CC[C@H](C)[C@H](NC(=O)[C@H](C)N)C(=O)N[C@H](C(=O)N[C@@H](C)C(=O)N[C@@H](CO[C@H]1O[C@H](CO)[C@H](O)[C@H](O[C@@H]2O[C@H](CO)[C@H](O)[C@H](O)[C@H]2O)[C@H]1NC(C)=O)C(=O)N[C@@H](Cc1ccccc1)C(=O)N[C@@H](C)C(=O)N[C@@H](C)C(=O)N[C@@H](CC(C)C)C(=O)O)[C@@H](C)CC` [AIIA(β-Gal-[1->3]-α-GalNAc-O-serine)FAAL] (H-AIIAS(X1)FAAL-OH; N-terminus and C-terminus assumed), the “cytolytic response of TF-specific CTL clones to antigen (51Cr release, net lysis)” value in series [2] is given as “high affinity/avidity”. Besides, the “cytotoxic T cell response generated by immunization” value with C57BL/6 mice is “generate primary and memory TF-specific cytotoxic T cells in C57BL/6 mice in the absence of Th”.
In the case of `CC(=O)N[C@H]1[C@@H](OC[C@H](NC(=O)[C@H](C)NC(=O)[C@H](CC(C)C)NC(=O)[C@H](C)N)C(=O)N[C@@H](C)C(=O)N[C@@H](C)C(=O)N[C@@H](C)C(=O)N[C@@H](C)C(=O)N[C@H](C(=O)O)C(C)C)O[C@H](CO)[C@H](O)[C@@H]1O` [ALA(GALNAc-O-S)SAAAAV], the “A2 affinity (in words)” value in the series on A2 class I MHC molecules is listed as “affinity slightly higher than the corresponding peptide but still efficiently”.
Consider `CC(=O)N[C@H]1[C@@H](OC[C@H](NC(=O)CNC(=O)[C@H](CC(C)C)NC(=O)[C@H](C)N)C(=O)N[C@H](C(=O)N[C@@H](C)C(=O)N2CCC[C@H]2C(=O)N2CCC[C@H]2C(=O)N[C@H](C(=O)O)C(C)C)[C@@H](C)O)O[C@H](CO)[C@H](O)[C@@H]1O` [ALG(Tn-S)TAPPV], for which, in the series on A2 class I MHC molecules, the “A2 affinity (in words)” value is given as “very high affinity”.
Turning to `CC(=O)N[C@H]1[C@@H](O[C@H](C)[C@H](NC(=O)[C@H](CC(=O)O)NC(=O)[C@@H]2CCCN2C(=O)[C@H](Cc2ccccc2)NC(=O)[C@H](CC(C)C)NC(=O)[C@@H](N)Cc2ccccc2)C(=O)N[C@@H](CCCNC(=N)N)C(=O)N[C@@H](C)C(=O)N[C@H](C(=O)O)C(C)C)O[C@H](CO)[C@H](O)[C@@H]1O` [FLFPD(GalNAc-T)RAV] (H-FLFPDT(αGalNAc)RAV-OH; N-terminus and C-terminus assumed), the “solubility when diluted in Dimethylsulfoxide (DMSO)” value (from here on “solubility when diluted”) in series [3] is given as “very soluble”. The “A2 affinity (in words)” value with A2 class I MHC molecules was “very high affinity”.
On to `CC(=O)N[C@H]1[C@@H](O[C@H](C)[C@H](NC(=O)[C@H](CC(=O)O)NC(=O)[C@@H]2CCCN2C(=O)[C@H](Cc2ccccc2)NC(=O)[C@H](CC(C)C)NC(=O)[C@@H](N)Cc2ccccc2)C(=O)N[C@@H](CCCNC(=N)N)C(=O)N[C@@H](Cc2ccc(O)cc2)C(=O)N[C@H](C(=O)O)C(C)C)O[C@H](CO)[C@H](O)[C@@H]1O` [FLFPD(Tn-T)RYV] (H-FLFPDT(αGalNAc)RYV-OH; N-terminus and C-terminus assumed), for which the “solubility when diluted” value in series [3] was “very soluble”. Moreover, the “A2 affinity (in words)” value in the series on A2 class I MHC molecules was “very high affinity”.
For the molecule `CC(=O)N[C@H]1[C@@H](O[C@H](C)[C@H](NC(=O)[C@H](CC(=O)O)NC(=O)[C@@H]2CCCN2C(=O)[C@H](CC(C)C)NC(=O)[C@@H](N)Cc2ccccc2)C(=O)N[C@@H](CCCNC(=N)N)C(=O)N[C@@H](Cc2ccccc2)C(=O)N[C@@H](Cc2ccc(O)cc2)C(=O)N[C@H](C(=O)O)C(C)C)O[C@H](CO)[C@H](O)[C@@H]1O` [FLPD(GalNAc-T)RFYV] (H-FLPDT(αGalNAc)RFYV-OH; N-terminus and C-terminus assumed), the “solubility when diluted” value in series [3] is given as “very soluble”. The “A2 affinity (in words)” value with A2 class I MHC molecules is given as “very high affinity”.
Consider `CC(=O)N[C@H]1[C@@H](OC[C@H](NC(=O)[C@H](CO)NC(=O)[C@H](Cc2ccc(O)cc2)NC(=O)[C@H](CC(C)C)NC(=O)CN)C(=O)N[C@H](C(=O)N[C@H](C(=O)N2CCC[C@H]2C(=O)N[C@H](C(=O)O)C(C)C)C(C)C)[C@@H](C)O)O[C@H](CO)[C@H](O)[C@@H]1O` [GLYS(GalNAc-O-S)TVPV], for which, in series [1], the “number … Donor 1” value is on record as 6; the “number … Donor 2” value worked out at 2; the “number … Donor 3” value was 1; the “number … Donor 4” value is 1. In series [1], the “number … Donor 5” value was 4; the “number … Donor 6” value amounted to 4; the “number … Donor 7” value is listed as 2; the “Total number of specific CTL lines” value amounted to 20.
Take `CC(=O)N[C@H]1[C@@H](OC[C@H](NC(=O)[C@@H](NC(=O)[C@H](CC(C)C)NC(=O)[C@@H](N)[C@@H](C)O)[C@@H](C)O)C(=O)N[C@@H](CS)C(=O)N[C@@H](CC(N)=O)C(=O)N[C@H](C(=O)N[C@@H](CO)C(=O)N[C@H](C(=O)O)C(C)C)[C@@H](C)O)O[C@H](CO)[C@H](O)[C@@H]1O` [TLT(GalNAc-O-S)CNTSV] (H-TLTS(αGalNAc)CNTSV-OH; N-terminus and C-terminus assumed): in series [1], the “number … Donor 1” value worked out at 7; the “number … Donor 2” value is on record as 4; the “number … Donor 3” value is recorded as 0; the “number … Donor 4” value is 1. Also, in series [1], the “number … Donor 5” value is recorded as 5; the “number … Donor 6” value was 1; the “number … Donor 7” value was found to be 5; the “Total number of specific CTL lines” value is recorded as 23.
As to `CC(=O)N[C@@H]1[C@@H](O)[C@@H](O)[C@@H](CO)O[C@@H]1O` [Tn, α-GalNAc], in the series on cancer patients, the “safety and tolerability in clinical trials” value is “safe and well tolerated”.
Turning to “AIIA(GalNAc-O-S)FAAL (AIIAS(GalNAc)FAAL)”, in the series on MUC1/MT transgenic mice, the “CTL activity after vaccination” value is “Strong CTL activity”.
For FAPG (β-Gal-[1->3]-α-GalNAc-O-S)YPAL, the “cytolytic response of TF-specific CTL clones to antigen (51Cr release, net lysis)” value in series [2] was “good cytolytic activity”.
